The values below come from US9656963B2 (BRISTOL-MYERS SQUIBB COMPANY, priority 2012, dated 2017).

One may read the EC50 as the midpoint of the concentration-response curve.

The structures appear in SMILES notation.

T1 sequence (O14842 whole entry): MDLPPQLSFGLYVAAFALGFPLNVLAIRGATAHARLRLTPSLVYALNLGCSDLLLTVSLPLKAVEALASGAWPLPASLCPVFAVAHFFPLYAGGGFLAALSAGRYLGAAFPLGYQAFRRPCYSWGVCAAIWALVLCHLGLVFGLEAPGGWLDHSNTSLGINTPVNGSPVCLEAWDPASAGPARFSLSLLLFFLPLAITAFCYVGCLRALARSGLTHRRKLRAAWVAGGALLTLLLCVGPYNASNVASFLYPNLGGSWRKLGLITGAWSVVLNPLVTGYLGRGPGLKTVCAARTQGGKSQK

This assay addresses T1, hGPR40 (Homo sapiens, UniProt O14842).
T1 construct: 3x FLAG; expressed in transfected cells
The experiment in a line: FDSS-Based Intracellular Calcium Assay. It is filed as cell-based. As to conditions: cells expressing GPR40, intracellular Ca2+ response. The procedure, abridged: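 Flag-tagged GPR40-expressing cells plated overnight in serum-free, phenol red-free DMEM. Compounds added from DMSO stocks, diluted in assay buffer and added as 3x solution. Intracellular Ca^2+ flux read by fluorescence on an FDSS reader.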
For the molecule `COc1ccc(F)c(-c2ccc(Cc3ccc(N4N=C(C(F)(F)F)CC4CC(=O)O)cc3)cc2C)c1` (single isomer, unassigned) [Example 22, Isomer 1, 2-(1-(4-((2′-fluoro-5′-methoxy-2-methylbiphenyl-4-yl)methyl)phenyl)-3-(trifluoromethyl)-4,5-dihydro-1H-pyrazol-5-yl)acetic acid], the EC50 was 770 nM.
The same measure for `COc1ccc(F)c(-c2ccc(Cc3ccc(N4N=C(C(F)(F)F)C(c5ccccc5)C4CC(=O)O)cc3)c(C)c2)c1` (single isomer, unassigned) [Example 47, Isomer 2, 2-(1-(4-((2′-fluoro-5′-methoxy-3-methylbiphenyl-4-yl)methyl)phenyl)-4-phenyl-3-(trifluoromethyl)-4,5-dihydro-1H-pyrazol-5-yl)acetic acid]: 5930 nM; for `COc1cc(-c2ccc(Oc3ccc(N4N=C(C(F)(F)F)CC4CC(=O)O)cc3)c(C)c2)c(F)cn1` (single isomer, unassigned) [Example 15, Isomer 2, 2-(1-(4-(4-(5-fluoro-2-methoxypyridin-4-yl)-2-methylphenoxy)phenyl)-3-(trifluoromethyl)-4,5-dihydro-1H-pyrazol-5-yl)acetic acid]: 530 nM.
On to `COc1ccc(F)c(-c2ccc(Cc3ccc(N4N=C(c5ccn(C)n5)C(C)C4CC(=O)O)cc3)c(C)c2)c1` (single isomer, unassigned) [Example 55, Isomer 1, 2-((1-(4-((2′-fluoro-5′-methoxy-3-methyl-[1,1′-biphenyl]-4-yl)methyl)phenyl)-1′,4-dimethyl-4,5-dihydro-1H,1′H-[3,3′-bipyrazol]-5-yl)acetic acid, trans-diastereomer], for which the EC50 stood at 5630 nM.
As to `COc1ccc(F)c(-c2ccc(Cc3ccc(N4N=C(C(F)(F)F)C(CC#N)C4CC(=O)O)cc3)c(C)c2)c1` (single isomer, unassigned) [Example 54, Isomer 2, 2-(4-(cyanomethyl)-1-(4-((2′-fluoro-5′-methoxy-3-methyl-[1,1′-biphenyl]-4-yl)methyl)phenyl)-3-(trifluoromethyl)-4,5-dihydro-1H-pyrazol-5-yl)acetic acid, trans-diastereomer], the concentration for a half-maximal effect (EC50) was determined as 1100 nM.
As to `COc1ncccc1-c1ccc(Cc2ccc(N3N=C(C(F)(F)F)[C@@H](C)[C@@H]3CC(=O)O)cc2)c(C)c1` [Example 77, 2-((4S,5S)-1-(4-(4-(2-methoxypyridin-3-yl)-2-methylbenzyl)phenyl)-4-methyl-3-(trifluoromethyl)-4,5-dihydro-1H-pyrazol-5-yl)acetic acid], the EC50 amounted to 5370 nM.
On to `COc1ccc(F)c(-c2cnc(Oc3ccc(N4N=C(C(F)(F)F)[C@@H](C)[C@@H]4CC(=O)O)cc3)nc2)c1` [Example 65, 2-((4S,5S)-1-(4-(5-(2-fluoro-5-methoxyphenyl)pyrimidin-2-yloxy)phenyl)-4-methyl-3-(trifluoromethyl)-4,5-dihydro-1H-pyrazol-5-yl)acetic acid], for which the EC50 came to 1490 nM.
The same measure for `COc1ccc(F)c(-c2ccc(Cc3ccc(N4N=C(C#N)CC4CC(=O)O)cc3)c(C)c2)c1` (single isomer, unassigned) [Example 34, Isomer 2, 2-(3-cyano-1-(4-((2′-fluoro-5′-methoxy-3-methylbiphenyl-4-yl)methyl)phenyl)-4,5-dihydro-1H-pyrazol-5-yl)acetic acid]: 560 nM; for `COc1ccc(F)c(-c2ccc(Oc3ccc(N4N=C(C(F)(F)F)CC4CC(=O)O)cc3)cc2C)c1` (single isomer, unassigned) [Example 16, Isomer 2, 2-(1-(4-(2′-fluoro-5′-methoxy-2-methylbiphenyl-4-yloxy)phenyl)-3-(trifluoromethyl)-4,5-dihydro-1H-pyrazol-5-yl)acetic acid]: 340 nM.
To `Cc1ccccc1Oc1ccc(N2N=C(C(F)(F)F)CC2CC(=O)O)cc1` (single isomer, unassigned) [Example 11, Isomer 1, 2-(1-(4-(o-tolyloxy)phenyl)-3-(trifluoromethyl)-4,5-dihydro-1H-pyrazol-5-yl)acetic acid] belongs 70 nM.
Regarding `COc1ccc(F)c(-c2ccc(Cc3ccc(N4N=C(c5ccn(C)n5)C(C)C4CC(=O)O)cc3)c(C)c2)c1` (single isomer, unassigned) [Example 55, Isomer 2, 2-((1-(4-((2′-fluoro-5′-methoxy-3-methyl-[1,1′-biphenyl]-4-yl)methyl)phenyl)-1′,4-dimethyl-4,5-dihydro-1H,1′H-[3,3′-bipyrazol]-5-yl)acetic acid, trans-diastereomer], the EC50 came out at 230 nM.
The same measure for `COc1ccc(F)c(-c2ccc(Cc3ccc(N4N=C(C(F)(F)F)C(C5CC5)C4CC(=O)O)cc3)c(C)c2)c1` (single isomer, unassigned) [Example 43, Isomer 2, 2-(4-cyclopropyl-1-(4-((2′-fluoro-5′-methoxy-3-methylbiphenyl-4-yl)methyl)phenyl)-3-(trifluoromethyl)-4,5-dihydro-1H-pyrazol-5-yl)acetic acid]: 90 nM; for `COc1ccc(F)c(-c2ncc(Cc3ccc(N4N=C(c5ccccc5)[C@@H](C)[C@@H]4CC(=O)O)cc3)c(C)n2)c1` [Example 64, 2-((4S,5S)-1-(4-((2-(2-fluoro-5-methoxyphenyl)-4-methylpyrimidin-5-yl)methyl)phenyl)-4-methyl-3-phenyl-4,5-dihydro-1H-pyrazol-5-yl)acetic acid]: 270 nM.
As for `COc1ccc(F)c(-c2ccc(Cc3ccc(N4N=C(c5ncccn5)C(C)C4CC(=O)O)cc3)c(C)c2)c1` (single isomer, unassigned) [Example 61 isomer 1], the EC50 was above 16600 nM.
The same measure for `COc1ccc(F)c(-c2ccc(Cc3ccc(N4N=C(C(F)(F)F)C(CO)C4CC(=O)O)cc3)c(C)c2)c1` (single isomer, unassigned) [Example 53, Isomer 2, 2-(1-(4-((2′-fluoro-5′-methoxy-3-methyl-[1,1′-biphenyl]-4-yl)methyl)phenyl)-4-(hydroxymethyl)-3-(trifluoromethyl)-4,5-dihydro-1H-pyrazol-5-yl)acetic acid, trans-diastereomer]: 1100 nM; for `COc1ccc(F)c(-c2ccc(Cc3ccc(N4N=C(C(F)(F)F)CC4(C)CC(=O)O)cc3)c(C)c2)c1` (single isomer, unassigned) [Example 51, Isomer 1, 2-(1-(4-((2′-fluoro-5′-methoxy-3-methylbiphenyl-4-yl)methyl)phenyl)-5-methyl-3-(trifluoromethyl)-4,5-dihydro-1H-pyrazol-5-yl)acetic acid]: 1550 nM; for `COc1ccc(F)c(-c2ccc(Cc3ccc(N4N=C(c5ccc(F)cc5)[C@@H](C)[C@@H]4CC(=O)O)cc3)c(C)c2)c1` (single isomer, unassigned) [Example 67, isomer 1]: 9 nM.
As to `COc1ccc(F)c(-c2ccc(Cc3ccc(N4N=C(C(F)(F)F)CC4CC(=O)O)cc3)c(C)c2)c1` (single isomer, unassigned) [Example 17, Isomer 2, 2-(1-(4-((2′-fluoro-5′-methoxy-3-methylbiphenyl-4-yl)methyl)phenyl)-3-(trifluoromethyl)-4,5-dihydro-1H-pyrazol-5-yl)acetic acid], the EC50 is 90 nM.
To `COc1ccc(F)c(-c2ccc(Oc3ccc(N4N=C(C(F)(F)F)CC4CC(=O)O)cc3)c(Cl)c2)c1` (single isomer, unassigned) [Example 42, Isomer 1, 2-(1-(4-(3-chloro-2′-fluoro-5′-methoxybiphenyl-4-yloxy)phenyl)-3-(trifluoromethyl)-4,5-dihydro-1H-pyrazol-5-yl)acetic acid] belongs 620 nM; to `Cc1ccccc1Oc1ccc(N2N=C(C(F)(F)F)CC2CC(=O)O)cc1` (single isomer, unassigned) [Example 11, Isomer 2, 2-(1-(4-(o-tolyloxy)phenyl)-3-(trifluoromethyl)-4,5-dihydro-1H-pyrazol-5-yl)acetic acid], 1850 nM; to `COc1cc(-c2ccc(Cc3ccc(N4N=C(C(F)(F)F)[C@@H](C)[C@@H]4CC(=O)O)cc3)c(C)c2)ccn1` [Example 75, 2-((4S,5S)-1-(4-(4-(2-methoxypyridin-4-yl)-2-methylbenzyl)phenyl)-4-methyl-3-(trifluoromethyl)-4,5-dihydro-1H-pyrazol-5-yl)acetic acid], 430 nM.
With `COCC1C(C(F)(F)F)=NN(c2ccc(Cc3ccc(-c4cc(OC)ccc4F)cc3C)cc2)C1CC(=O)O` (single isomer, unassigned) [Example 48, Isomer 2, 2-(1-(4-((2′-fluoro-5′-methoxy-3-methylbiphenyl-4-yl)methyl)phenyl)-4-(methoxymethyl)-3-(trifluoromethyl)-4,5-dihydro-1H-pyrazol-5-yl)acetic acid], the EC50 is 920 nM.
To `COc1cccc(-c2ccc(Oc3ccc(N4N=C(C(F)(F)F)CC4CC(=O)O)cc3)c(C)c2)c1` (single isomer, unassigned) [Example 9, Isomer 2, 2-(1-(4-(3′-methoxy-3-methylbiphenyl-4-yloxy)phenyl)-3-(trifluoromethyl)-4,5-dihydro-1H-pyrazol-5-yl)acetic acid] belongs 290 nM; to `COc1ccc(F)c(-c2ccc(Cc3ccc(N4N=C(C(F)(F)F)C(CO)C4CC(=O)O)cc3)c(C)c2)c1` (single isomer, unassigned) [Example 53, Isomer 1, 2-(1-(4-((2′-fluoro-5′-methoxy-3-methyl-[1,1′-biphenyl]-4-yl)methyl)phenyl)-4-(hydroxymethyl)-3-(trifluoromethyl)-4,5-dihydro-1H-pyrazol-5-yl)acetic acid, trans-diastereomer], 170 nM.
For the molecule `COc1ccc(F)c(-c2ccc(Oc3ccc(N4N=C(C(F)(F)F)CC4CC(=O)O)cc3)cc2C)c1` (single isomer, unassigned) [Example 16, Isomer 1, 2-(1-(4-(2′-fluoro-5′-methoxy-2-methylbiphenyl-4-yloxy)phenyl)-3-(trifluoromethyl)-4,5-dihydro-1H-pyrazol-5-yl)acetic acid], the EC50 came out at 670 nM.
